From PubChem BioAssay AID330 (DTP/NCI, 2004)
Values joined by “and” are separate entries in the source; they are usually repeats but may differ in a detail not shown here. Equal values may be shown once. Toxic doses and inconclusive results are not listed.

Test system: P388 leukemia ip, CD2F1 mice, survival T/C
Assay: NCI In Vivo Anticancer Drug Screen. Data for tumor model P388 Leukemia (intraperitoneal) in CD2F1 (CDF1) mice
Conditions: endpoint: median survival time, higher = longer survival
Outline: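 Mice carrying the transplanted tumor received test compound or vehicle. Survival was recorded in each group, and the value is the treated-group measurement divided by that of the vehicle-treated control group.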

[1] = dose: 50.0 mg/kg/injection, schedule: Q01DX005 (ip), vehicle: Klucel (hydroxypropylcellulose) (HPC)
[2] = dose: 100.0 mg/kg/injection, schedule: Q01DX005 (ip), vehicle: Klucel (hydroxypropylcellulose) (HPC)
[3] = dose: 200.0 mg/kg/injection, schedule: Q01DX005 (ip), vehicle: Klucel (hydroxypropylcellulose) (HPC)
[4] = dose: 50.0 mg/kg/injection, schedule: Q01DX005 (ip), vehicle: saline with Tween-80
[5] = dose: 100.0 mg/kg/injection, schedule: Q01DX005 (ip), vehicle: saline with Tween-80
[6] = dose: 60.0 mg/kg/injection, schedule: Q01DX005 (ip), vehicle: saline with Tween-80
[7] = dose: 120.0 mg/kg/injection, schedule: Q01DX005 (ip), vehicle: saline with Tween-80

Q: With `CSc1ncnc2c1c1c(N)ncnc1n2C1OC(CO)C(O)C1O` (stereo not given) as the compound, how does the T/C (dose: 25.0 mg/kg/injection, schedule: Q01DX005 (ip), vehicle: other) read?
A: 97 % of control

Q: And the T/C (dose: 50.0 mg/kg/injection, schedule: Q01DX005 (ip), vehicle: other)?
A: 97 % of control

Q: And the T/C (dose: 100.0 mg/kg/injection, schedule: Q01DX005 (ip), vehicle: other)?
A: 109 % of control

Q: And the T/C (dose: 200.0 mg/kg/injection, schedule: Q01DX005 (ip), vehicle: other)?
A: 105 % of control

Q: Which results are given for `Cc1ccc(N=c2oc(-c3ccccc3)cs2)cc1`?
A: T/C (dose: 100.0 mg/kg/injection, schedule: Q01DX001 (ip), vehicle: saline with Tween-80): 90 % of control; T/C (dose: 200.0 mg/kg/injection, schedule: Q01DX001 (ip), vehicle: saline with Tween-80): 89 % of control; T/C (dose: 400.0 mg/kg/injection, schedule: Q01DX001 (ip), vehicle: saline with Tween-80): 88 % of control

Q: Which T/C (dose: 100.0 mg/kg/injection, schedule: Q04DX003 (ip), vehicle: saline with Tween-80) does the source give for `CN(C(N)=O)C1CCCC1` here?
A: 100 % of control

Q: And the T/C (dose: 200.0 mg/kg/injection, schedule: Q04DX003 (ip), vehicle: saline with Tween-80)?
A: 109 % of control

Q: What about the T/C (dose: 400.0 mg/kg/injection, schedule: Q04DX003 (ip), vehicle: saline with Tween-80) of the same compound?
A: 113 % of control

Q: What does the source list for `COc1ccc2sc(-c3ccccc3)cc(=O)c2c1`?
A: T/C [1]: 100 % of control; T/C [2]: 101 % of control; T/C [3]: 101 % of control

Q: For `O=C1Cn2c(c3ccccc3nc2=O)N1`, which T/C [4] is on record?
A: 104 % of control

Q: What about the T/C [5] of the same compound?
A: 103 % of control

Q: And the T/C (dose: 200.0 mg/kg/injection, schedule: Q01DX005 (ip), vehicle: saline with Tween-80)?
A: 106 % of control

Q: How did the T/C (dose: 15.0 mg/kg/injection, schedule: Q01DX005 (ip), vehicle: saline with Tween-80) turn out when `S=C(SSC(=S)N1CCOCC1)N1CCOCC1` was run?
A: 97 % of control

Q: And the T/C (dose: 30.0 mg/kg/injection, schedule: Q01DX005 (ip), vehicle: saline with Tween-80)?
A: 102 % of control

Q: What about the T/C [6] of the same compound?
A: 102 % of control and 107 % of control

Q: And the T/C [7]?
A: 104 % of control

Q: For `COc1cc(C[C@H]2c3cc(OC)c(OC)c(O)c3CCN2C)c(Oc2cc3c(cc2OC)-c2c(OC)c(OC)c(OC)c4c2C(C3)N(C)CC4)cc1OC` (stereo not given in full) (tested in a mixture with another compound), which T/C (dose: 8.75 mg/kg/injection, schedule: Q01DX005 (ip), vehicle: Klucel (hydroxypropylcellulose) (HPC)) is on record?
A: 103 % of control

Q: What about the T/C (dose: 17.5 mg/kg/injection, schedule: Q01DX005 (ip), vehicle: Klucel (hydroxypropylcellulose) (HPC)) of the same compound?
A: 99 % of control

Q: And the T/C (dose: 35.0 mg/kg/injection, schedule: Q01DX005 (ip), vehicle: Klucel (hydroxypropylcellulose) (HPC))?
A: 96 % of control

Q: And the T/C (dose: 70.0 mg/kg/injection, schedule: Q01DX005 (ip), vehicle: Klucel (hydroxypropylcellulose) (HPC))?
A: 94 % of control

Q: With `CC(C)NC(=O)OCc1c(COC(=O)NC(C)C)c(Sc2ccccc2)n2c1CCC2` as the compound, how does the T/C (dose: 25.0 mg/kg/injection, schedule: Q01DX005 (ip), vehicle: saline with Tween-80) read?
A: 154 % of control

Q: What about the T/C [4] of the same compound?
A: 163 % of control

Q: And the T/C [5]?
A: 110 % of control

Q: `COc1cc(C2SCC(=O)N2c2nncs2)c([N+](=O)[O-])cc1OC` (stereo not given) was tested. Which T/C [1] did it give?
A: 91 % of control

Q: What about the T/C [2] of the same compound?
A: 91 % of control

Q: And the T/C [3]?
A: 89 % of control

Q: With `Nc1ncnc2ncn(CC(O)CN(CCO)CCO)c12` (stereo not given) as the compound, how does the T/C (dose: 60.0 mg/kg/injection, schedule: Q01DX005 (ip), vehicle: Klucel (hydroxypropylcellulose) (HPC)) read?
A: 100 % of control

Q: And the T/C (dose: 120.0 mg/kg/injection, schedule: Q01DX005 (ip), vehicle: Klucel (hydroxypropylcellulose) (HPC))?
A: 97 % of control

Q: What about the T/C (dose: 240.0 mg/kg/injection, schedule: Q01DX005 (ip), vehicle: Klucel (hydroxypropylcellulose) (HPC)) of the same compound?
A: 95 % of control

Q: Which T/C [6] does the source give for `O=C1C(O)=C(c2ccccc2)C12CSC1(CS2)C(=O)C(O)=C1c1ccccc1` (stereo not given) here?
A: 100 % of control

Q: What about the T/C [7] of the same compound?
A: 94 % of control

Q: And the T/C (dose: 240.0 mg/kg/injection, schedule: Q01DX005 (ip), vehicle: saline with Tween-80)?
A: 91 % of control

Q: How did the T/C (dose: 25.0 mg/kg/injection, schedule: Q01DX005 (ip), vehicle: Klucel (hydroxypropylcellulose) (HPC)) turn out when `N=C(N)c1ccc(N=Nc2cc(N=Nc3ccccc3)ccc2O)cc1` was run?
A: 109 % of control

Q: What about the T/C [1] of the same compound?
A: 113 % of control

Q: What about the T/C [2] of the same compound?
A: 115 % of control

Q: What about the T/C [3] of the same compound?
A: 115 % of control
